Values of other authors, collected in patent publication US7049092B1 (priority 1999, dated 2006).

Molecular target: hormone-sensitive lipase
Conditions: read-out: IC50 (concentration producing 50% inhibition)

Compound: [Cl][Hg][Cl] [HgCl2 (mercuric chloride), mercuric chloride]
- IC50: 11 µM
